Several values for one entry are separate records, joined by “and”; a condition that tells them apart may be missing. Equal entries are not always repeated. Toxic doses and inconclusive results are not listed.
Tested on: L1210 leukemia ip in BDF1 mice, survival T/C
Experiment: NCI In Vivo Anticancer Drug Screen. Data for tumor model L1210 Leukemia (intraperitoneal) in B6D2F1 (BDF1) mice
Settings: endpoint: mean survival time, higher = longer survival
How it was run: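 Transplantable tumor model; survival measured in treated vs vehicle control mice. Value = treated/control.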

[1] = dose: 75.0 mg/kg/injection, schedule: Q01DX001 (ip), vehicle: saline
[2] = dose: 150.0 mg/kg/injection, schedule: Q01DX001 (ip), vehicle: saline
[3] = dose: 100.0 mg/kg/injection, schedule: Q01DX001 (ip), vehicle: saline
[4] = dose: 400.0 mg/kg/injection, schedule: Q01DX001 (ip), vehicle: saline
[5] = dose: 100.0 mg/kg/injection, schedule: Q01DX009 (ip), vehicle: saline with Tween-80
[6] = dose: 100.0 mg/kg/injection, schedule: Q04DX003 (ip), vehicle: saline with Tween-80
[7] = dose: 200.0 mg/kg/injection, schedule: Q04DX003 (ip), vehicle: saline with Tween-80
[8] = dose: 400.0 mg/kg/injection, schedule: Q04DX003 (ip), vehicle: saline with Tween-80
[9] = dose: 50.0 mg/kg/injection, schedule: Q01DX009 (ip), vehicle: saline with Tween-80
[10] = dose: 100.0 mg/kg/injection, schedule: Q01DX001 (ip), vehicle: carboxymethylcellulose (CMC)
[11] = dose: 200.0 mg/kg/injection, schedule: Q01DX001 (ip), vehicle: carboxymethylcellulose (CMC)
[12] = dose: 400.0 mg/kg/injection, schedule: Q01DX001 (ip), vehicle: carboxymethylcellulose (CMC)
[13] = dose: 100.0 mg/kg/injection, schedule: Q04DX003 (ip), vehicle: Klucel (hydroxypropylcellulose) (HPC)
[14] = dose: 200.0 mg/kg/injection, schedule: Q04DX003 (ip), vehicle: Klucel (hydroxypropylcellulose) (HPC)
[15] = dose: 400.0 mg/kg/injection, schedule: Q04DX003 (ip), vehicle: Klucel (hydroxypropylcellulose) (HPC)
[16] = dose: 100.0 mg/kg/injection, schedule: Q01DX009 (ip), vehicle: Klucel (hydroxypropylcellulose) (HPC)
[17] = dose: 200.0 mg/kg/injection, schedule: Q01DX009 (ip), vehicle: Klucel (hydroxypropylcellulose) (HPC)
[18] = dose: 400.0 mg/kg/injection, schedule: Q01DX009 (ip), vehicle: Klucel (hydroxypropylcellulose) (HPC)

For CCCCCCOP(=O)(N1CC1)N1CC1, the T/C (dose: 0.62 mg/kg/injection, schedule: Q01DX001 (ip), vehicle: saline) was 102 % of control, the T/C (dose: 1.25 mg/kg/injection, schedule: Q01DX001 (ip), vehicle: saline) was 100 % of control and the T/C (dose: 2.5 mg/kg/injection, schedule: Q01DX001 (ip), vehicle: saline) was 103 % of control. For the same compound, the T/C (dose: 5.0 mg/kg/injection, schedule: Q01DX001 (ip), vehicle: saline) was 103 % of control, the T/C (dose: 10.0 mg/kg/injection, schedule: Q01DX001 (ip), vehicle: saline) was 152 % of control and the T/C (dose: 20.0 mg/kg/injection, schedule: Q01DX001 (ip), vehicle: saline) was 201 % of control. The T/C (dose: 40.0 mg/kg/injection, schedule: Q01DX001 (ip), vehicle: saline) was 287 % of control, the T/C [1] was 267 % of control and the T/C [2] was 247 % of control.
O=[N+]([O-])c1ccc(N2CCN=N2)cc1 was tested, and the T/C (dose: 8.0 mg/kg/injection, schedule: Q01DX015 (ip), vehicle: saline) was 107 % of control, the T/C (dose: 16.0 mg/kg/injection, schedule: Q01DX015 (ip), vehicle: saline) was 110 % of control and the T/C (dose: 32.0 mg/kg/injection, schedule: Q01DX015 (ip), vehicle: saline) was 113 % of control. For the same compound, the T/C (dose: 64.0 mg/kg/injection, schedule: Q01DX015 (ip), vehicle: saline) was 116 % of control, the T/C [3] was 103 % of control and the T/C (dose: 100.0 mg/kg/injection, schedule: Q04DX003 (ip), vehicle: saline sonified) was 104 % of control. For the same compound, the T/C [4] was 111 % of control.
For COC1(c2ccc([N+](=O)[O-])o2)OC1(C)C (stereo not drawn), the T/C [5] was 98 % of control, the T/C [6] was 113 % of control and the T/C (dose: 200.0 mg/kg/injection, schedule: Q01DX009 (ip), vehicle: saline with Tween-80) was 95 % of control. For the same compound, the T/C [7] was 109 % of control and the T/C [8] was 96 % of control.
For CC(=O)c1ccc2c(c1)N(CCCN1CCN(CCO)CC1)c1ccccc1S2, the T/C (dose: 0.78 mg/kg/injection, schedule: Q01DX009 (ip), vehicle: saline) was 93 % of control and 120 % of control, the T/C (dose: 1.5 mg/kg/injection, schedule: Q01DX009 (ip), vehicle: saline) was 106 % of control and the T/C (dose: 1.56 mg/kg/injection, schedule: Q01DX009 (ip), vehicle: saline) was 105 % of control and 113 % of control. For the same compound, the T/C (dose: 3.12 mg/kg/injection, schedule: Q01DX009 (ip), vehicle: Klucel (hydroxypropylcellulose) (HPC)) was 113 % of control, the T/C (dose: 3.12 mg/kg/injection, schedule: Q01DX009 (ip), vehicle: saline) was 102 % of control and 104 % of control and 116 % of control and the T/C (dose: 6.25 mg/kg/injection, schedule: Q01DX009 (ip), vehicle: saline) was 103 % of control and 104 % of control. For the same compound, the T/C (dose: 6.25 mg/kg/injection, schedule: Q04DX003 (ip), vehicle: saline) was 98 % of control, the T/C (dose: 12.5 mg/kg/injection, schedule: Q01DX009 (ip), vehicle: Klucel (hydroxypropylcellulose) (HPC)) was 96 % of control and the T/C (dose: 12.5 mg/kg/injection, schedule: Q04DX003 (ip), vehicle: saline) was 115 % of control. The T/C (dose: 25.0 mg/kg/injection, schedule: Q01DX009 (ip), vehicle: saline) was 98 % of control.
Nc1ccc2ccc(O)cc2c1 was tested, and the T/C (dose: 200.0 mg/kg/injection, schedule: Q04DX003 (ip), vehicle: saline) was 121 % of control.
For CC(C)c1ccc(C(C2C(=O)CC(C)(C)CC2=O)C2C(=O)CC(C)(C)CC2=O)cc1, the T/C [3] was 103 % of control, the T/C (dose: 200.0 mg/kg/injection, schedule: Q01DX001 (ip), vehicle: saline) was 109 % of control and the T/C [4] was 107 % of control.
For CN(C)N=Nc1ccc(C(=N)N)cc1, the T/C (dose: 100.0 mg/kg/injection, schedule: Q01DX001 (ip), vehicle: acid diluted with saline) was 105 % of control.
For CCCCCCCCCCCCCCCCCCOc1ccc(Cl)cc1Cl, the T/C (dose: 100.0 mg/kg/injection, schedule: Q04DX002 (ip), vehicle: other) was 98 % of control, the T/C (dose: 200.0 mg/kg/injection, schedule: Q04DX002 (ip), vehicle: other) was 102 % of control and the T/C (dose: 400.0 mg/kg/injection, schedule: Q04DX002 (ip), vehicle: other) was 102 % of control.
With C=C(Br)CNC(=O)C(C)(C)C the T/C [6] was 97 % of control, the T/C [7] was 97 % of control and the T/C [8] was 98 % of control.
For CCCCn1nnc2c(NCCc3cnc[nH]3)nc(N)nc21, the T/C [9] was 93 % of control, the T/C [5] was 95 % of control and the T/C [6] was 89 % of control. For the same compound, the T/C [7] was 89 % of control.
In the case of COc1ccc(-c2ccc(CCNC(C)=O)cc2)cc1Cl, the T/C [10] is reported as 94 % of control, the T/C [11] is reported as 86 % of control and the T/C [12] is reported as 89 % of control.
For CC1CC(Cc2cccc3ccccc23)C(=O)O1 (stereo not drawn), the T/C (dose: 37.5 mg/kg/injection, schedule: Q01DX009 (ip), vehicle: saline) was 102 % of control, the T/C [1] was 97 % of control and the T/C (dose: 75.0 mg/kg/injection, schedule: Q01DX009 (ip), vehicle: saline) was 98 % of control. For the same compound, the T/C (dose: 75.0 mg/kg/injection, schedule: Q04DX003 (ip), vehicle: saline) was 96 % of control, the T/C [2] was 97 % of control and the T/C (dose: 150.0 mg/kg/injection, schedule: Q01DX009 (ip), vehicle: saline) was 96 % of control. For the same compound, the T/C (dose: 150.0 mg/kg/injection, schedule: Q04DX003 (ip), vehicle: saline) was 94 % of control, the T/C (dose: 300.0 mg/kg/injection, schedule: Q01DX001 (ip), vehicle: saline) was 98 % of control and the T/C (dose: 300.0 mg/kg/injection, schedule: Q04DX003 (ip), vehicle: saline) was 94 % of control.
For Clc1cc(Cl)c(/C=C/c2c(Cl)cc(Cl)cc2Cl)c(Cl)c1, the T/C [13] was 98 % of control, the T/C [14] was 93 % of control and the T/C [15] was 95 % of control.
O=C(C[N+]12CN3CN(CN(C3)C1)C2)c1ccc(Br)cc1 was tested, and the T/C (dose: 100.0 mg/kg/injection, schedule: Q01DX005 (ip), vehicle: Klucel (hydroxypropylcellulose) (HPC)) was 103 % of control, the T/C [16] was 111 % of control and the T/C (dose: 200.0 mg/kg/injection, schedule: Q01DX005 (ip), vehicle: Klucel (hydroxypropylcellulose) (HPC)) was 109 % of control. For the same compound, the T/C [17] was 107 % of control and the T/C (dose: 400.0 mg/kg/injection, schedule: Q01DX005 (ip), vehicle: Klucel (hydroxypropylcellulose) (HPC)) was 111 % of control.
In the case of CCCCCCCCCc1ccc(OP(Oc2ccccc2)Oc2ccc(CCCCCCCCC)cc2)cc1, the T/C [1] is reported as 100 % of control and the T/C [2] is reported as 109 % of control.
For COc1ccccc1NC(=O)NO, the T/C [10] was 97 % of control, the T/C [11] was 97 % of control and the T/C [12] was 100 % of control.
In the case of CC(=O)Nc1ccc(NC(=O)C2CC2)cc1, the T/C [16] is reported as 95 % of control, the T/C [17] is reported as 109 % of control and the T/C [18] is reported as 104 % of control.
In the case of COc1cc(N(CCCl)CCCl)c(OC)cc1C=Nc1ccc(-c2nc(Cc3ccccc3)sc2C)cc1, the T/C (dose: 4.0 mg/kg/injection, schedule: Q01DX009 (ip), vehicle: other) is reported as 117 % of control, the T/C (dose: 6.0 mg/kg/injection, schedule: Q01DX009 (ip), vehicle: other) is reported as 123 % of control and the T/C (dose: 9.0 mg/kg/injection, schedule: Q01DX009 (ip), vehicle: other) is reported as 120 % of control. The T/C (dose: 12.5 mg/kg/injection, schedule: Q01DX001 (ip), vehicle: carboxymethylcellulose (CMC)) was 105 % of control, the T/C (dose: 25.0 mg/kg/injection, schedule: Q01DX001 (ip), vehicle: carboxymethylcellulose (CMC)) was 105 % of control and the T/C (dose: 44.0 mg/kg/injection, schedule: Q01DX001 (ip), vehicle: carboxymethylcellulose (CMC)) was 110 % of control. For the same compound, the T/C (dose: 44.0 mg/kg/injection, schedule: Q01DX009 (ip), vehicle: other) was 160 % of control, the T/C (dose: 66.0 mg/kg/injection, schedule: Q01DX009 (ip), vehicle: carboxymethylcellulose (CMC)) was 102 % of control and the T/C (dose: 100.0 mg/kg/injection, schedule: Q01DX009 (ip), vehicle: carboxymethylcellulose (CMC)) was 88 % of control. For the same compound, the T/C (dose: 150.0 mg/kg/injection, schedule: Q01DX001 (ip), vehicle: carboxymethylcellulose (CMC)) was 153 % of control.
In the case of Cc1ccc(Cl)cc1NC(=O)c1ccccc1, the T/C [16] is reported as 89 % of control, the T/C [13] is reported as 95 % of control and the T/C [17] is reported as 100 % of control. The T/C [14] was 106 % of control, the T/C [18] was 94 % of control and the T/C [15] was 95 % of control.
For O=S(=O)(F)c1cccc(C[P+](c2ccccc2)(c2ccccc2)c2ccccc2)c1, the T/C (dose: 25.0 mg/kg/injection, schedule: Q01DX009 (ip), vehicle: saline with Tween-80) was 95 % of control, the T/C [9] was 101 % of control and the T/C (dose: 100.0 mg/kg/injection, schedule: Q04DX003 (ip), vehicle: acetone) was 94 % of control.

Source: PubChem BioAssay AID248 (DTP/NCI, 2004)
